Test results from patent US9040528B2, “Chemical compounds 542” (AstraZeneca AB, priority 2008, dated 2015).
pIC50: −log10 of the molar value.

Biological target: Escherichia coli DNA gyrase A/B tetramer (Escherichia coli (strain K12), UniProt P0AES4+P0AES6)
Test: DNA gyrase supercoiling activity fluorescence polarisation assay
Assay type: biochemical
Details: not given
Description: DNA Gyrase Supercoiling Activity Fluorescence Polarisation Assay
The supercoiling reactions may be quenched by the addition of 10 microliters/well of 40 nM oligodeoxynucleotide probe in 3× triplex-forming buffer consisting of 150 mM NaCl, and 150 mM sodium acetate at pH 3.5. The oligodeoxynucleotide probe may be 5′-BODIPY-FL-labeled […]. After 60 minutes, the fluorescence anisotropy of the BODIPY-FL may be measured in a Tecan Ultra plate reader, using 485 nm excitation and 535 nm emission filters equipped with polarizers. The IC50 may be determined by nonlinear regression using two control reactions. The first contains no test compound but 0.8% DMSO (100% activity) while the second control reaction contains 5 μM Ciprofloxacin and 0.8% DMSO (0% activity).

Compound	pIC50
C[C@@H]1CN2c3c(cc4c(-n5cncn5)noc4c3F)CC3(C(=O)NC(=O)NC3=O)[C@H]2[C@H](C)O1 (racemic) [Example 53, (2R,4S,4 aS)-rel-11-fluoro-2,4-dimethyl-8-(1H-1,2,4-triazol-1-yl)-1,2,4,4a-tetrahydro-2′H,6H-spiro[1,4-oxazino[4,3-a][1,2]oxazolo[4,5-g]quinoline-5,5′-pyrimidine]-2′,4′,6′(1′H,3′H)-trione]	5.55

Same assay, conditions: 5 nM enzyme, relaxed plasmid, 0.3 mM ATP, ambient temperature; read-out: E. coli DNA gyrase supercoiling IC50

Compound	pIC50
C[C@@H]1CN2c3c(cc4c(C(=O)NC(C)(C)C)noc4c3F)CC3(C(=O)NC(=O)NC3=O)[C@H]2[C@H](C)O1 (relative stereo) [Example 144, (2R,4S,4aS)-rel-N-tert-butyl-11-fluoro-2,4-dimethyl-2′,4′,6′-trioxo-2,2′,3′,4,4a,4′,6,6′-octahydro-1H,1′H-spiro[isoxazolo[4,5-g][1,4]oxazino[4,3-a]quinoline-5,5′-pyrimidine]-8-carboxamide]	5.54
C[C@@H]1CN2c3c(nc4c(-c5sc(Cl)nc5Cl)noc4c3Cl)CC3(C(=O)NC(=O)NC3=O)[C@H]2[C@H](C)O1 (relative stereo) [Example 116, (2R,4S,4aS)-rel-11-chloro-2,4-dimethyl-8-(2,4-dichlorothiazol-5-yl)-2,4,4a,6-tetrahydro-1H,1′H-spiro[isoxazolo[4,5-g][1,4]oxazino[4,3-a][1,5]naphthyridine-5,5′-pyrimidine]-2′,4′,6′(3′H)-trione]	5.70
C[C@@H]1CN2c3c(cc4c(C(N)=S)noc4c3F)CC3(C(=O)NC(=O)NC3=O)[C@H]2[C@H](C)O1 (relative stereo) [Intermediate 575, (2R,4S,4aS)-rel-11-fluoro-2,4-dimethyl-2′,4′,6′-trioxo-1,1′,2,3′,4,4′,4a,6′-octahydro-2′H,6H-spiro[1,4-oxazino[4,3-a][1,2]oxazolo[4,5-g]quinoline-5,5′-pyrimidine]-8-carbothioamide]	6.00
C[C@@H]1CN2c3c(cc4c(C(=O)N5CC(F)(F)C5)noc4c3F)CC3(C(=O)NC(=O)NC3=O)[C@H]2[C@H](C)O1 (relative stereo) [Example 95, (2R,4S,4aS)-rel-8-(3,3-difluoroazetidine-1-carbonyl)-11-fluoro-2,4-dimethyl-2,4,4a,6-tetrahydro-1H,1′H-spiro[isoxazolo[4,5-g][1,4]oxazino[4,3-a]quinoline-5,5′-pyrimidine]-2′,4′,6′(3′H)-trione]	6.52
C[C@@H]1CN2c3c(cc4c(-c5cnc(N6CCOCC6)cn5)noc4c3F)CC3(C(=O)NC(=O)NC3=O)[C@@H]2[C@@H](C)O1 [Example 166(a), (2R,4R,4aR)-11-fluoro-2,4-dimethyl-8-(5-morpholinopyrazin-2-yl)-2,4,4a,6-tetrahydro-1H,1′H-spiro[isoxazolo[4,5-g][1,4]oxazino[4,3-a]quinoline-5,5′-pyrimidine]-2′,4′,6′(3′H)-trione]	4.08
C[C@@H]1CN2c3c(cc4c(-n5cc(-c6cnccn6)cn5)noc4c3F)CC3(C(=O)NC(=O)NC3=O)[C@H]2[C@H](C)O1 (relative stereo) [Example 35, (2R,4S,4aS)-rel-11-fluoro-2,4-dimethyl-8-[4-(pyrazin-2-yl)-1H-pyrazol-1-yl]-1,2,4,4a-tetrahydro-2′H,6H-spiro[1,4-oxazino[4,3-a][1,2]oxazolo[4,5-g]quinoline-5,5′-pyrimidine]-2′,4′,6′(1′H,3′H)-trione]	4.52
C[C@@H]1CN2c3c(cc4c(-c5cnccn5)noc4c3Cl)CC3(C(=O)NC(=O)NC3=O)[C@H]2[C@H](C)O1 (racemic) [Example 120, (2R,4 S,4 aS)-rel-11-chloro-2,4-dimethyl-8-(pyrazin-2-yl)-2,4,4a,6-tetrahydro-1H,1′H-spiro[isoxazolo[4,5-g][1,4]oxazino[4,3-a]quinoline-5,5′-pyrimidine]-2′,4′,6′(3′H)-trione]	6.70
Cc1ncn(-c2noc3c(F)c4c(cc23)CC2(C(=O)NC(=O)NC2=O)[C@H]2[C@H](C)O[C@H](C)CN42)n1 (relative stereo) [Example 54, (2R,4S,4aS)-rel-11-fluoro-2,4-dimethyl-8-(3-methyl-1H-1,2,4-triazol-1-yl)-1,2,4,4a-tetrahydro-2′H,6H-spiro[1,4-oxazino[4,3-a][1,2]oxazolo[4,5-g]quinoline-5,5′-pyrimidine]-2′,4′,6′(1′H,3′H)-trione]	5.70
C[C@@H]1CN2c3c(nc4c(C(=O)NCc5ccccc5)noc4c3Cl)CC3(C(=O)NC(=O)NC3=O)[C@H]2[C@H](C)O1 (relative stereo) [Example 131, (2R,4S,4aS)-rel-N-benzyl-11-chloro-2,4-dimethyl-2′,4′,6′-trioxo-2,2′,3′,4,4a,4′,6,6′-octahydro-1H,1′H-spiro[isoxazolo[4,5-g][1,4]oxazino[4,3-a][1,5]naphthyridine-5,5′-pyrimidine]-8-carboxamide]	5.36
COc1nccc(-c2noc3c(F)c4c(cc23)CC2(C(=O)NC(=O)NC2=O)[C@H]2[C@H](C)O[C@H](C)CN42)n1 [Example 172, (2R,4S,4aS)-11-fluoro-8-(2-methoxypyrimidin-4-yl)-2,4-dimethyl-2,4,4a,6-tetrahydro-1H,1′H-spiro[isoxazolo[4,5-g][1,4]oxazino[4,3-a]quinoline-5,5′-pyrimidine]-2′,4′,6′(3′H)-trione]	6.05
C[C@@H]1CN2c3c(cc4c(S(C)(=O)=O)noc4c3F)CC3(C(=O)NC(=O)NC3=O)[C@H]2[C@H](C)O1 (relative stereo) [Example 182, (2R,4S,4aS)-rel-11-fluoro-2,4-dimethyl-8-(methylsulfonyl)-1,2,4,4a-tetrahydro-2′H,6H-spiro[1,4-oxazino[4,3-a][1,2]oxazolo[4,5-g]quinoline-5,5′-pyrimidine]-2′,4′,6′(1′H,3′H)-trione]	5.62
CC1O[C@H](C)CN2c3c(cc4c(-c5cnccn5)noc4c3F)CC3(C(=O)NC(=O)NC3=O)[C@H]12 (stereo in doubt) [Example 165(a), (2R,4S,4aR)-11-fluoro-2,4-dimethyl-8-(pyrazin-2-yl)-2,4,4a,6-tetrahydro-1H,1′H-spiro[isoxazolo[4,5-g][1,4]oxazino[4,3-a]quinoline-5,5′-pyrimidine]-2′,4′,6′(3′H)-trione]	5.11
CCCN(C)c1noc2c(F)c3c(cc12)CC1(C(=O)NC(=O)NC1=O)[C@H]1[C@H](C)O[C@H](C)CN31 (relative stereo) [Example 50, (2R,4S,4aS)-rel-11-fluoro-2,4-dimethyl-8-[methyl(propyl)amino]-1,2,4,4a-tetrahydro-2′H,6H-spiro[1,4-oxazino[4,3-a][1,2]oxazolo[4,5-g]quinoline-5,5′-pyrimidine]-2′,4′,6′(1′H,3′H)trione]	6.30
Cc1cc(C)n(-c2noc3c(F)c4c(cc23)CC2(C(=O)NC(=O)NC2=O)[C@H]2[C@H](C)O[C@H](C)CN42)n1 (relative stereo) [Example 63, (2R,4S,4aS)-rel-8-(3,5-dimethyl-1H-pyrazol-1-yl)-11-fluoro-2,4-dimethyl-1,2,4,4a-tetrahydro-2′H,6H-spiro[1,4-oxazino[4,3-a][1,2]oxazolo[4,5-g]quinoline-5,5′-pyrimidine]-2′,4′,6′(1′H,3′H)-trione]	5.57
Cc1nsc2c(F)c3c(cc12)CC1(C(=O)NC(=O)NC1=O)[C@H]1[C@H](C)O[C@H](C)CN31 (relative stereo) [Example 75, (2R,4S,4aS)-rel-11-fluoro-2,4,8-trimethyl-1,2,4,4a-tetrahydro-2′H,6H-spiro[1,4-oxazino[4,3-a][1,2]thiazolo[4,5-g]quinoline-5,5′-pyrimidine]-2′,4′,6′(1′H,3′H)-trione]	6.70
